Reference: publication PMC8327158, “PEGylated AdipoRon derivatives improve glucose and lipid metabolism under insulinopenic and high-fat diet conditions” (Journal of Lipid Research, 2021)

Tested on: HFD-fed wild-type mice
Assay: Sphingolipid levels in tissues and serum of HFD-fed mice by mass spectrometry
Type: in vivo, mouse
Conditions: for Cer 14:0 / Cer 16:0 / Cer 18:0 / Cer 18:1 / Cer 20:0 / Cer 22:0 / Cer 24:0 / Cer 24:1 / Cer 26:0 / Cer 26:1 / DeoxySphinganie / Deoxysphingosine / Hexosyl 14:0 / Hexosyl 16:0 / Hexosyl 18:0 / Hexosyl 20:0 / Hexosyl 22:0 / Hexosyl 24:0 / Hexosyl 24:1 / Lactosyl 16:0 / Lactosyl 18:0 / Lactosyl 22:0 / Lactosyl 24:1 / Lactosyl C24:0 / Sphingaine1P / Sphinganine / Sphingosine / Sphingosine1P / dCer 16:0 / dCer 18:0 / dCer 20:0 / dCer 22:0 / dCer 24:0 / dCer 24:1: 5 mg/kg twice a day 5 days, average ± SD
Description: Six-week-old wild-type male mice were fed HFD for 4 weeks or 7 months In total, 5 mg/Kg of PBS, Adiporon, AdipoRonPEG5, AdipoRonPEG6HTL were injected twice a day for 5 days. After 5 days of treatment, systemic test is performed, and serum (Before and after treatment), subcutaneous, epididymal, liver, heart samples were harvested for qPCR and sphingolipid analysis.
Flash-frozen tissue samples (~40 mg) in a borosilicate glass tube were quenched with 2.0 ml of organic extraction solvent (isopropanol: ethyl acetate, 15:85; v:v) and homogenized with a mechanical tissue disruptor. Immediately afterward, 20 μl of organic internal standard solution was added (Ceramide/Sphingoid Internal Standard Mixture II diluted 1:10 in ethanol). The mixture was vortexed for 20 s and sonicated in ultrasonic bath for 40 min at 40°C. The organic extract was allowed to reach room temperature, and 1.5 ml of HPLC water was added and a two-phase liquid-liquid extraction was performed. The upper phase was transferred to a new clean tube, and the lower aqueous phase containing the protein pellet was re-extracted with additional 2.0 ml of organic extraction solvent. The organic phases were combined and dried under nitrogen stream at 40°C. Dried extracts were stored at –80°C until analysis. For analysis of ceramides and sphingoid base species, the dried residues were reconstituted in 200 μl of methanol. Sphingomyelins required a sample dilution of 1:50 in methanol prior to analysis. Serum sphingolipids were extracted using a similar methodology requiring 25 μl of serum.
Liver, subcutaneous adipose tissue, pancreas, pancreatic islets were initially homogenized in 500 μl of cold PBS using an ultrasonic probe disruptor and keeping the sample on ice during sonication. In total, 50 μl of aqueous homogenate was aliquoted for protein determination. In total, 400 μl of the lysate was immediately quenched in 2.0 ml of organic extraction solvent.
In total, 5 μl of reconstituted samples was injected into an LC/MS/MS system for the analysis of ceramides and sphingoid bases, and 1 μl injection was required for the analysis of sphingomyelins. The system consisted of a Shimadzu LCMS-8050 triple-quadrupole mass spectrometer with the dual ion source operating in electrospray positive ionization mode. The mass spectrometer is coupled to a Shimadzu Nexera X2 UHPLC system equipped with three solvent delivery modules LC-30AD, three degassing units DGU-20A5R, an autosampler SIL-30ACMP, and a column oven CTO-20AC operating at 40°C (Shimadzu Scientific Instruments, Columbia, MD). Six sphingoid bases (d18:1 sphingosine, d18:1 sphingosine-1-phosphate, d18:1 deoxysphingosine, d18:0 sphinganine, d18:0 sphinganine-1-phosphate, d18:0 deoxysphinganine) and […] ceramide species and their metabolites (C16:0, C16:0 dihydroceramide, C16:0 glucosylceramide, C16:0 lactosylceramide, C16:0 sphingomyelin, C18:0, C18:0 dihydroceramide, C18:0 glucosylceramide, C18:0 sphingomyelin, C18:1, C20:0, C22:0, C22:0 glucosylceramide, C24:0, C24:0 dihydroceramide, C24:0 lactosylceramide, C24:0 sphingomyelin, C24:1, C24:1 dihydroceramide, C24:1 glucosylceramide, C24:1 sphingomyelin). Quantitative analysis of sphingolipids was achieved using selective reaction monitoring scan mode. Lipid separation was achieved by reverse phase LC on a 2.1 (i.d.) × 150 mm Ascentis Express C8, 2.7 micron (Supelco, Bellefonte, PA) column under gradient elution, using three different mobile phases: eluent A consisting of methanol/water/formic acid, 600/400/0.8, v/v/v with 5 mM ammonium formate, eluent B consisting of methanol/formic acid, 1,000/0.8, v/v with 5 mM ammonium formate, and eluent C consisting of CH3OH/CH2Cl2 350/650. The concentration of each metabolite was determined according to calibration curves using the peak-area ratio of analyte versus corresponding internal standard. Calibration curves were generated using serial dilutions of each target analyte.

## O=C(COc1ccc(C(=O)c2ccccc2)cc1)NC1CCN(Cc2ccccc2)CC1 [AdipoRon]
5 mg/kg
  scWAT ceramide levels: neither AdipoRon nor AdipoRonPEG5 had a noticeable impact
IP 5 mg/kg
  hepatic dihydroceramides: nor did it lower dihydroceramide
  sphingoid bases including S1P in the liver: neither increased sphingoid bases
liver
  Cer 14:0: 11180.9 ± 7129.23 pg/mg
  Cer 16:0: 15452.5 ± 14214.83 pg/mg
  Cer 18:0: 47128.6 ± 39264.7 pg/mg
  Cer 18:1: 0 pg/mg
  Cer 20:0: 2021924.3 ± 1132557.52 pg/mg
  Cer 22:0: 21221267.5 ± 1938950.14 pg/mg
  Cer 24:0: 8844684.8 ± 1440139.38 pg/mg
  Cer 24:1: 7621686.9 ± 1072827.16 pg/mg
  Cer 26:0: 108319.5 ± 12837.73 pg/mg
  Cer 26:1: 87632.7 ± 14143.63 pg/mg
  DeoxySphinganie: 16855.9 ± 5197.82 pg/mg
  Deoxysphingosine: 554.4 ± 112.17 pg/mg
  Hexosyl 14:0: 6839.3 ± 2807.56 pg/mg
  Hexosyl 16:0: 2057918.6 ± 682419.73 pg/mg
  Hexosyl 18:0: 13702.3 ± 11183.27 pg/mg
  Hexosyl 20:0: 139906.7 ± 74494.86 pg/mg
  Hexosyl 22:0: 21992555.3 ± 7887275.74 pg/mg
  Hexosyl 24:0: 9407290.2 ± 3691767.57 pg/mg
  Hexosyl 24:1: 7250991.4 ± 2638110.11 pg/mg
  Lactosyl 16:0: 401293.8 ± 92547.01 pg/mg
  Lactosyl 18:0: 0.0 ± 0.0 pg/mg
  Lactosyl 22:0: 604972.0 ± 219908.19 pg/mg
  Lactosyl 24:1: 424590.5 ± 191122.31 pg/mg
  Lactosyl C24:0: 317251.2 ± 183613.54 pg/mg
  Sphingaine1P: 55129.9 ± 14495.18 pg/mg
  Sphinganine: 299552.9 ± 52030.89 pg/mg
  Sphingosine: 1192462 ± 75216.97 pg/mg
  Sphingosine1P: 178631.8 ± 67607.36 pg/mg
  dCer 16:0: 18233.3 ± 21176.21 pg/mg
  dCer 18:0: 45901.3 ± 42922.13 pg/mg
  dCer 20:0: 37867.7 ± 27772.5 pg/mg
  dCer 22:0: 385034 ± 150652 pg/mg
  dCer 24:0: 364847.1 ± 73663.91 pg/mg
  dCer 24:1: 130075.8 ± 53105.06 pg/mg
pancreas
  Cer 14:0: 26.4 ± 4.51 pg/mg
  Cer 16:0: 26.1 ± 10.18 pg/mg
  Cer 18:0: 28.9 ± 6.11 pg/mg
  Cer 18:1: 0 pg/mg
  Cer 20:0: 1529.7 ± 140.3 pg/mg
  Cer 22:0: 7541.1 ± 1118.82 pg/mg
  Cer 24:0: 21064.5 ± 2932.0 pg/mg
  Cer 24:1: 10791.6 ± 1783.65 pg/mg
  Cer 26:0: 155.6 ± 36.08 pg/mg
  Cer 26:1: 81.6 ± 16.04 pg/mg
  DeoxySphinganie: 2.1 ± 0.29 pg/mg
  Deoxysphingosine: 0.0 ± 0.0 pg/mg
  Hexosyl 14:0: 3.8 ± 0.85 pg/mg
  Hexosyl 16:0: 2561.5 ± 453.4 pg/mg
  Hexosyl 18:0: 7.3 ± 3.14 pg/mg
  Hexosyl 20:0: 112.7 ± 34.01 pg/mg
  Hexosyl 22:0: 6774.3 ± 637.6 pg/mg
  Hexosyl 24:0: 3358.5 ± 311.97 pg/mg
  Hexosyl 24:1: 1427.8 ± 124.45 pg/mg
  Lactosyl 16:0: 975.8 ± 208.21 pg/mg
  Lactosyl 18:0: 52.8 ± 9.76 pg/mg
  Lactosyl 22:0: 223.0 ± 50.43 pg/mg
  Lactosyl 24:1: 310.1 ± 93.68 pg/mg
  Lactosyl C24:0: 2057.1 ± 422.83 pg/mg
  Sphingaine1P: 17.5 ± 11.69 pg/mg
  Sphinganine: 25.9 ± 3.48 pg/mg
  Sphingosine: 217.3 ± 27.75 pg/mg
  Sphingosine1P: 90.3 ± 22.26 pg/mg
  dCer 16:0: 3.8 ± 1.52 pg/mg
  dCer 18:0: 0.0 ± 0.0 pg/mg
  dCer 20:0: 2.0 ± 0.18 pg/mg
  dCer 22:0: 24.6 ± 9.85 pg/mg
  dCer 24:0: 206.7 ± 49.68 pg/mg
  dCer 24:1: 24.0 ± 10.28 pg/mg
scWAT
  Cer 14:0: 41670.5 ± 9888.98 pg/mg
  Cer 16:0: 200569.4 ± 60832.18 pg/mg
  Cer 18:0: 90968.7 ± 40221.97 pg/mg
  Cer 18:1: 24648 ± 8680 pg/mg
  Cer 20:0: 189778.3 ± 38166.38 pg/mg
  Cer 22:0: 835762.6 ± 112294.65 pg/mg
  Cer 24:0: 2316061.3 ± 1012651.99 pg/mg
  Cer 24:1: 2616280.7 ± 714833.34 pg/mg
  Cer 26:0: 25284.4 ± 8047.31 pg/mg
  Cer 26:1: 27852.3 ± 8212.8 pg/mg
  DeoxySphinganie: 1039.3 ± 1085.07 pg/mg
  Deoxysphingosine: 0.0 ± 0.0 pg/mg
  Hexosyl 14:0: 3863.9 ± 2313.65 pg/mg
  Hexosyl 16:0: 1558779.8 ± 419292.53 pg/mg
  Hexosyl 18:0: 879349.9 ± 318302.5 pg/mg
